According to US8084649B2, “Herbicides” (Syngenta Crop Protection, inc., priority 2007, dated 2011):

Key:
Assay type in all cases: in vivo
[1] = test system: Lolium perenne (LOLPE); assay: Pre-emergence herbicidal activity, glasshouse pot test; details: Lolium perenne, 480 h, evaluated after 20 days, read-out: Pre-emergence activity, LOLPE (100=total damage to plant; 0=no damage to plant); for pest or weed control at 500 g/ha: rate 500 g/ha
Method in brief: (§1)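 Pots were sown in sterilised standard soil and, one day after sowing, sprayed pre-emergence with an aqueous solution of the formulated compound. Plants were grown on in a greenhouse and damage was scored after 20 days on a 0–100 scale, where 100 means total damage.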

[2] = test system: Alopecurus myosuroides (ALOMY); assay: as above; details: Alopecurus myosuroides, 480 h, evaluated after 20 days, read-out: Pre-emergence activity, ALOMY (100=total damage to plant; 0=no damage to plant); for pest or weed control at 500 g/ha: rate 500 g/ha
Method in brief: as §1

[3] = test system: Digitaria sanguinalis (DIGSA); assay: as above; details: Digitaria sanguinalis, 480 h, evaluated after 20 days, read-out: Pre-emergence activity, DIGSA (100=total damage to plant; 0=no damage to plant); for pest or weed control at 500 g/ha: rate 500 g/ha
Method in brief: as §1

[4] = test system: Avena fatua (AVEFA); assay: as above; details: Avena fatua, 480 h, evaluated after 20 days, read-out: Pre-emergence activity, AVEFA (100=total damage to plant; 0=no damage to plant); for pest or weed control at 500 g/ha: rate 500 g/ha
Method in brief: as §1

[5] = test system: Echinochloa crus-galli (ECHCG); assay: as above; details: Echinochloa crus-galli, 480 h, evaluated after 20 days, read-out: Pre-emergence activity, ECHCG (100=total damage to plant; 0=no damage to plant); for pest or weed control at 500 g/ha: rate 500 g/ha
Method in brief: as §1

[6] = test system: Setaria faberi (SETFA); assay: as above; details: Setaria faberi, 480 h, evaluated after 20 days, read-out: Pre-emergence activity, SETFA (100=total damage to plant; 0=no damage to plant); for pest or weed control at 500 g/ha: rate 500 g/ha
Method in brief: as §1

[7] = test system: Lolium perenne (LOLPE); assay: Post-emergence herbicidal activity, glasshouse pot test; details: Lolium perenne, evaluated after 14 or 15 days, read-out: Post-emergence activity, LOLPE (100=total damage to plant; 0=no damage to plant); for pest or weed control at 500 g/ha: rate 500 g/ha
Method in brief: (§2)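 Test species were grown in sterilised soil for 10 days, sprayed post-emergence with the aqueous formulated compound, and kept in a greenhouse under optimum conditions. Herbicidal effect was assessed after 14 or 15 days as percent damage, where 0 means no effect.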

[8] = test system: Alopecurus myosuroides (ALOMY); assay: as above; details: Alopecurus myosuroides, evaluated after 14 or 15 days, read-out: Post-emergence activity, ALOMY (100=total damage to plant; 0=no damage to plant); for pest or weed control at 500 g/ha: rate 500 g/ha
Method in brief: as §2

[9] = test system: Digitaria sanguinalis (DIGSA); assay: as above; details: Digitaria sanguinalis, evaluated after 14 or 15 days, read-out: Post-emergence activity, DIGSA (100=total damage to plant; 0=no damage to plant); for pest or weed control at 500 g/ha: rate 500 g/ha
Method in brief: as §2

[10] = test system: Avena fatua (AVEFA); assay: as above; details: Avena fatua, evaluated after 14 or 15 days, read-out: Post-emergence activity, AVEFA (100=total damage to plant; 0=no damage to plant); for pest or weed control at 500 g/ha: rate 500 g/ha
Method in brief: as §2

[11] = test system: Echinochloa crus-galli (ECHCG); assay: as above; details: Echinochloa crus-galli, evaluated after 14 or 15 days, read-out: Post-emergence activity, ECHCG (100=total damage to plant; 0=no damage to plant); for pest or weed control at 500 g/ha: rate 500 g/ha
Method in brief: as §2

[12] = test system: Setaria faberi (SETFA); assay: as above; details: Setaria faberi, evaluated after 14 or 15 days, read-out: Post-emergence activity, SETFA (100=total damage to plant; 0=no damage to plant); for pest or weed control at 500 g/ha: rate 500 g/ha
Method in brief: as §2

Row | Compound | pest or weed control at 500 g/ha [1] [%] | pest or weed control at 500 g/ha [2] [%] | pest or weed control at 500 g/ha [3] [%] | pest or weed control at 500 g/ha [4] [%] | pest or weed control at 500 g/ha [5] [%] | pest or weed control at 500 g/ha [6] [%] | pest or weed control at 500 g/ha [7] [%] | pest or weed control at 500 g/ha [8] [%] | pest or weed control at 500 g/ha [9] [%] | pest or weed control at 500 g/ha [10] [%] | pest or weed control at 500 g/ha [11] [%] | pest or weed control at 500 g/ha [12] [%] | also measured
1 | CCc1cc(C)cc(CC)c1C1=C(O)CC(C(C)(C)S(C)(=O)=O)CC1=O (stereo not drawn) [Compound T19] |  |  |  |  |  |  |  |  |  |  |  |  | pest or weed control at 250 g/ha ([1]; rate 250 g/ha): 80%; pest or weed control at 250 g/ha ([2]; rate 250 g/ha): 70%; pest or weed control at 250 g/ha ([3]; rate 250 g/ha): 90%; pest or weed control at 250 g/ha ([4]; rate 250 g/ha): 70%; pest or weed control at 250 g/ha ([5]; rate 250 g/ha): 80%; pest or weed control at 250 g/ha ([6]; rate 250 g/ha): 50%; pest or weed control at 250 g/ha ([7]; rate 250 g/ha): 80%; pest or weed control at 250 g/ha ([8]; rate 250 g/ha): 80%; pest or weed control at 250 g/ha ([9]; rate 250 g/ha): 80%; pest or weed control at 250 g/ha ([10]; rate 250 g/ha): 80%; pest or weed control at 250 g/ha ([11]; rate 250 g/ha): 80%; pest or weed control at 250 g/ha ([12]; rate 250 g/ha): 80%
2 | CCc1cc(C)cc(CC)c1C1=C(O)CC(C(C)(C)SC)CC1=O (stereo not drawn) [Compound T20] | 100 | 100 | 100 | 100 | 100 | 100 | 100 | 100 | 100 | 100 | 100 | 100 | 
3 | CCc1cc(C)cc(CC)c1C1=C(O)CC(C2(SC)CC2)CC1=O (stereo not drawn) [Compound T21] | 100 | 100 | 100 | 100 | 100 | 100 | 90 | 90 | 100 | 100 | 90 | 90 | 
4 | CCc1cc(C)cc(CC)c1C1=C(O)CC2(CCOCC2)CC1=O [Compound T22, 9-(2,6-diethyl-4-methylphenyl)-3-oxaspiro[5.5]undecane-8,10-dione] | 100 | 100 | 100 | 100 | 100 | 100 |  |  |  |  |  |  | pest or weed control at 125 g/ha ([7]; rate 125 g/ha): 90%; pest or weed control at 125 g/ha ([8]; rate 125 g/ha): 100%; pest or weed control at 125 g/ha ([9]; rate 125 g/ha): 100%; pest or weed control at 125 g/ha ([10]; rate 125 g/ha): 90%; pest or weed control at 125 g/ha ([11]; rate 125 g/ha): 100%; pest or weed control at 125 g/ha ([12]; rate 125 g/ha): 100%
5 | CCc1cc(C)cc(CC)c1C1=C(O)CC(COCOC)CC1=O (stereo not drawn) [Compound T23] | 80 | 80 | 100 | 70 | 100 | 70 | 90 | 90 | 90 | 80 | 100 | 100 | 
6 | CCc1cc(C)cc(CC)c1C1=C(O)CC(COCCOC)CC1=O (stereo not drawn) [Compound T24] | 100 | 100 | 100 | 80 | 100 | 100 | 90 | 90 | 90 | 80 | 100 | 100 | 
7 | CCc1cc(C)cc(CC)c1C1=C(O)CC(C2(SC)CCC2)CC1=O (stereo not drawn) [Compound T25] | 100 | 100 | 100 | 100 | 100 | 100 | 90 | 100 | 100 | 100 | 80 | 100 | 
8 | Cc1cc(C)c(C2=C(O)CC3(CCOCC3)CC2=O)c(C)c1 [Compound T26] | 90 | 90 | 100 | 20 | 100 | 70 | 50 | 60 | 80 | 10 | 100 | 80 | 
9 | CCc1cc(C)cc(C)c1C1=C(O)CC2(CCOCC2)CC1=O [Compound T27] | 100 | 100 | 100 | 100 | 100 | 100 | 80 | 80 | 90 | 90 | 100 | 100 | 
10 | CCc1cc(C)cc(CC)c1C1=C(O)CC(CC(C)S(=O)(=O)CC)CC1=O (stereo not drawn) [Compound T28, 2-(2,6-diethyl-4-methylphenyl)-5-[2-(ethylsulfonyl)propyl]cyclohexane-1,3-dione] | 100 | 70 | 100 | 100 | 100 | 100 | 80 | 90 | 100 | 100 | 100 | 90 | 
